Assay results taken from patent US6544727B1, “Methods and devices for the removal of psoralens from blood products” (Cerus Corporation, priority 1995, dated 2003).
Where “and” joins values, the source holds several entries; their conditions need not be identical. Equal values may be shown once. Entries after “also recorded” stand apart in the source; their conditions may differ.

Key:
R17 bacteriophage = R17 bacteriophage inactivation assay, varying compound concentration; type: cell-based; conditions: for R17 inactivation efficiency compared with AMT or 8-MOP (in words): varying concentration, Tables 6-9, FIGS. 6-10
Outline: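 R17 phage (10^9/mL in DMEM with 15% FBS) mixed with compound at 4–320 μM and irradiated 1–10 min. Surviving phage titred by serial dilution and plaque assay on Hfr 3000 bacteria after overnight incubation at 37 °C; controls were untreated phage, UV without compound, and compound without irradiation.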

[1] = tested on: Duck Hepatitis B Virus (DHBV); test: Inactivation of Duck Hepatitis B Virus in platelet concentrate, read by PCR amplification; type: biochemical; conditions: 5 J/cm^2 UVA
Protocol: DHBV in duck yolk was added to platelet concentrate (PC) to a final concentration of 2×10^7 particles per mL and mixed by gentle rocking for ≧15 min. […] Samples, including controls without added psoralen, were irradiated with 5 J/cm^2 UVA, with mixing at 1 J/cm^2 increments. After irradiation, leukocytes and platelets were separated from virus by centrifugation. The supernatant containing DHBV was digested overnight with 50 μg/mL proteinase K in a buffer containing 0.5% sodium dodecyl sulphate, 20 mM Tris buffer, pH 8.0, and 5 mM EDTA at 55° C. Samples were extracted with phenol-chloroform and chloroform, followed by ethanol precipitation. Purified DNA was then used in PCR amplification reactions with a starting input of 10^6 DHBV genomes from each sample. […] The amplification was followed by a 7 min incubation at 72° C. to yield full length products. [[…]-^32P] dCTP was added at an amount of […] in order to detect and quantify the resulting products. Products were separated by electrophoresis on denaturing polyacrylamide slab gels and counted. The absence of signal in a given reaction was taken to indicate effective inactivation of DHBV.

[2] = tested on: Salmonella tester strain TA1537; test: Ames test, strain TA1537
Protocol: In this example the compounds of the present invention are tested for their dark mutagenicity using an Ames assay. The procedures used for the Salmonella mutagenicity test as described in detail by Maron and Ames were followed exactly. Maron, D. M. and B. N. Ames, Mutation Research 113: 173 ( 1983). A brief description for each procedure is given here. The tester strains TA97a, TA98, TA100, TA102, TA1537 and TA1538 were obtained from Dr. Ames. TA97a, TA98, TA1537 and TA1538 are frameshift tester strains. TA100 and TA102 are base-substitution tester strains. Upon receipt each strain was cultured under a variety of conditions to confirm the genotypes specific to the strains.
The first tests done with the strains were to determine the range of spontaneous reversion for each of the strains. With each mutagenicity experiment the spontaneous reversion of the tester strains to histidine independence was measured and expressed as the number of spontaneous revertants per plate. This served as the background controls.
For all experiments, the pre-incubation procedure was used. In this procedure one vial of each tester strain was thawed and 20 μL of this culture was added to 6 mL of Oxoid Nutrient Broth #2. This solution was allowed to shake for 10 hours at 37° C. In the pre-incubation procedure, 0.1 mL of this overnight culture was added to each of the required number of sterile test tubes. To half of the tubes 0.5 mL of a 10% S-9 solution containing Aroclor 1254 induced rat liver extract (Molecular Toxicology Inc., Annapolis, Md.), and MgCl2, KCl, glucose-6-phosphate, NADP, and sodium phosphate buffer (Sigma, St. Louis, Mo.) were added. To the other half of the tubes 0.5 mL of 0.2M sodium phospate buffer, pH 7.4, was used in place of the S-9 mixture (the—S9samples). Finally 0.1 mL of the test solution containing either 0, 0.1, 0.5, 1, 5, 10, 50, 100, 250, or 500 μg/mL of the test compound was added. The 0.7 mL mixture was vortexed and then pre-incubated while shaking for 20 minutes at 37° C. After shaking, 2 mL of molten top agar supplemented with histidine and biotin were added to the 0.7 mL mixture and immediately poured onto a minimal glucose agar plate (volume of base agar was 20 mL). The top agar was allowed 30 minutes to solidify and then the plates were inverted and incubated for 44 hours at 37° C. After incubation the number of revertant colonies on each plate were counted. […] (“n” represents the number of replicates performed for each data point.)

platelets = test: Platelet count, Sysmex cell counter; type: cell-based, human; conditions: 100 μM compound, 5 Joules/cm^2, Day 5; FIGS. 21A-24A
Protocol: Samples were diluted 1:3 in blood bank saline.

[3] = 8 μM, starting titer approx. 7.2 logs, 1 minute irradiation (Table 7)
[4] = 16 μM, starting titer approx. 7.1 logs, 1 minute irradiation (Table 9)
[5] = 16 μM, starting titer approx. 7.1 logs, 1 minute irradiation = 1.2 J/cm^2 (Table 8)
[6] = 16 μM, starting titer approx. 7.2 logs, 1 minute irradiation (Table 7)
[7] = 32 μM, starting titer approx. 7.1 logs, 1 minute irradiation = 1.2 J/cm^2 (Table 8)
[8] = 32 μM, starting titer approx. 7.2 logs, 1 minute irradiation (Table 7)

| SMILES | R17 Log Kill (R17 bacteriophage; [3]) [log] | R17 Log Kill (R17 bacteriophage; [4]) [log] | R17 Log Kill (R17 bacteriophage; [5]) [log] | R17 Log Kill (R17 bacteriophage; [6]) [log] | R17 Log Kill (R17 bacteriophage; [7]) [log] | R17 Log Kill (R17 bacteriophage; [8]) [log] | revertant colonies per plate ([2]; TA1537 + S9, 10 μg/plate) | revertant colonies per plate ([2]; TA1537 + S9, 50 μg/plate) | revertant colonies per plate ([2]; TA1537 + S9, 100 μg/plate) | revertant colonies per plate ([2]; TA1537 + S9, 250 μg/plate) | revertant colonies per plate ([2]; TA1537 − S9, 10 μg/plate) | revertant colonies per plate ([2]; TA1537 − S9, 50 μg/plate) | revertant colonies per plate ([2]; TA1537 − S9, 250 μg/plate) | R17 inactivation efficiency compared with AMT or 8-MOP (in words) (R17 bacteriophage) | platelet count, treated against controls (in words) (platelets) | revertant colonies per plate ([2]; TA1537 − S9, 100 μg/plate) | also measured |
| --- | --- | --- | --- | --- | --- | --- | --- | --- | --- | --- | --- | --- | --- | --- | --- | --- | --- |
| Cc1oc2c(C)c3oc(=O)cc(C)c3cc2c1CN [AMT, 4′-Aminomethyl-4,5′,8-trimethylpsoralen, reference compound] | 2.7 | >6 | 4.5 | 4.6 | 4.8 | >6.2 | 30 | 94 | 686 and 500 | 3738 | 52 | 2688 | 434 |  |  |  | R17 Log Kill (R17 bacteriophage; 32 μM, starting titer approx. 7.1 logs, 1 minute irradiation (Table 9)): >6 log; R17 log kill (32 μM) (R17 bacteriophage; 32 μM, starting titer approx. 7.5 logs, 1 minute irradiation): >6.7 log; PCR of the 1072 bp DHBV amplicon ([1]; 35 mM final concentration (so in the source)): a signal could be detected; PCR of the 1072 bp DHBV amplicon ([1]; 70 and 100 mM levels (so in the source)): inhibited PCR amplification; revertant colonies per plate ([2]; TA1537 + S9, 0.1 μg/plate): 2; revertant colonies per plate ([2]; TA1537 + S9, 0.5 μg/plate): 2; revertant colonies per plate ([2]; TA1537 + S9, 1 μg/plate): 3; revertant colonies per plate ([2]; TA1537 + S9, 5 μg/plate): 22; revertant colonies per plate ([2]; TA1537 − S9, 0.1 μg/plate): 0; revertant colonies per plate ([2]; TA1537 − S9, 0.5 μg/plate): 3; revertant colonies per plate ([2]; TA1537 − S9, 1 μg/plate): 5; revertant colonies per plate ([2]; TA1537 − S9, 5 μg/plate): 44 |
| Cc1oc2c(C)c3oc(=O)cc(C)c3cc2c1CNCCCCN [Compound 6, 4′-(6-amino-2-aza)hexyl-4,5′,8-trimethylpsoralen] |  | >6 | >6.1 |  | >6.1 |  |  |  | 20 and 35 |  |  |  |  | significantly higher inactivation efficiency than does AMT | higher platelet count than samples treated with light alone; also recorded: counts equivalent to the 5 day control |  | R17 Log Kill (R17 bacteriophage; 8 μM, starting titer approx. 7.1 logs, 1 minute irradiation (Table 9)): >6 log; R17 Log Kill (R17 bacteriophage; 64 μM, starting titer approx. 7.1 logs, 1 minute irradiation = 1.2 J/cm^2 (Table 8)): >6.1 log |
| Cc1cc(=O)oc2c(C)c3oc(COCCN)c(C)c3cc12 [Compound 18, 5′-(4-amino-2-oxa)butyl-4,4′,8-trimethylpsoralen] |  |  |  |  |  |  | 8 | 6 | 26 |  | 21 | 303 |  |  | higher platelet count than samples treated with light alone | 390 | revertant colonies per plate ([2]; TA1537 + S9, 200 μg/plate): 42; revertant colonies per plate ([2]; TA1537 − S9, 200 μg/plate): 225 |
| Cc1oc2c(C)c3oc(=O)cc(C)c3cc2c1COCCN [Compound 2, 4′-(4-amino-2-oxa)butyl-4,5′,8-trimethylpsoralen] | 3.8 |  |  | >6.2 |  | >6.2 | 5 | 40 | 88 | 744 | 36 | 282 | 176 | significantly higher inactivation efficiency than does AMT |  | 258 | PCR of the 1072 bp DHBV amplicon ([1]; all concentrations (35, 70, and 100 mM as printed), platelet concentrate): complete inhibition of PCR; PCR of the smaller DHBV amplicons (127 bp, 327 bp) compared with AMT ([1]; same concentrations): inhibited PCR of the smaller amplicons better than did AMT; revertant colonies per plate ([2]; TA1537 + S9, 500 μg/plate): 395; revertant colonies per plate ([2]; TA1537 − S9, 500 μg/plate): 114 |
